Results taken from patent US11485740B2, “Inhibitors of TRPC6” (Boehringer Ingelheim International GmbH, priority 2018, dated 2022).

Target: T1, human TRPC6 (Homo sapiens, UniProt Q9Y210)
T1 construct: expressed in transfected cells
T1 sequence (Q9Y210 1-931): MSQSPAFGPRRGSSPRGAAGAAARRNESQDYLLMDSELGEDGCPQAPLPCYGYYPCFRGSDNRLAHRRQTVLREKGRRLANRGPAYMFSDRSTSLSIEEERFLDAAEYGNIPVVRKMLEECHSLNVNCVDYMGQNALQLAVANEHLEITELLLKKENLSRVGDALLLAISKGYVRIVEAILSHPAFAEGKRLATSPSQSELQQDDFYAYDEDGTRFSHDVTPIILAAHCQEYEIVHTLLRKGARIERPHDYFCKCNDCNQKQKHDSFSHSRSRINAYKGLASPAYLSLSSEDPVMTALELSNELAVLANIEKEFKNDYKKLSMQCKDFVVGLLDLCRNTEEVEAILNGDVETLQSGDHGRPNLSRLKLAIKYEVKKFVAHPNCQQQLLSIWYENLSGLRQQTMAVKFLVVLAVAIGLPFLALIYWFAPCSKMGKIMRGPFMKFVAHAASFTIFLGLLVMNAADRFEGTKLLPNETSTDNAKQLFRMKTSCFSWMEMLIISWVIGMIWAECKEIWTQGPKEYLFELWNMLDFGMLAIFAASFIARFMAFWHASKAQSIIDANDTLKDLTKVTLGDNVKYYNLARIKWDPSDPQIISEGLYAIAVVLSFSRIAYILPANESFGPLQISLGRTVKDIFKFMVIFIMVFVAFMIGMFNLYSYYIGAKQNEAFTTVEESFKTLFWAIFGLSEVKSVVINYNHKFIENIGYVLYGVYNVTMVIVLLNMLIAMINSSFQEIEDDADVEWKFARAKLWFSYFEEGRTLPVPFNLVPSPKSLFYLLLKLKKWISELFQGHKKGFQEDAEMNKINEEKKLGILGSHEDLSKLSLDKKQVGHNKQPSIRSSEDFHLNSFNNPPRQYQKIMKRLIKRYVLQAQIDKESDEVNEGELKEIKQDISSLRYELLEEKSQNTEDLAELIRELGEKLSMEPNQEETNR
Assay: High throughput screening assay: Fluo4/AM calcium fluorescence in HEK293/TREx cells expressing human TRPC6, agonist GSK1702934A (single concentration 10 μM and IC50 curves)
Type: cell-based
Conditions: antagonist effect against human TRPC6, 7 concentrations 20 μM to 0.027 μM, triplicate
How it was run: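 HEK293/TREx cells stably carrying tetracycline-induced (1 μg/ml) human TRPC6, loaded with Fluo4/AM (0.5 μM, 60 min, RT), pretreated 2 min with compound (10 μM final in screen), then stimulated with GSK1702934A in high-Ca2+ Ringer's (20 mM Ca2+ final). Fluorescence ratio over ~3 min normalized to no-compound and control-blocker wells; IC50 from triplicate curves.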

**Q.** With `COC[C@H]1CN(c2cnc(N)cc2OC)CCN1C(=O)c1cc(OC)c(-c2ccccc2)cn1` [Compound 100, [(R)-4-(6-Amino-4-methoxy-pyridin-3-yl)-2-methoxymethyl-piperazin-1-yl]-(4-methoxy-5-phenyl-pyridin-2-yl)-methanone] as the compound, how does the IC50 read?
**A.** 230 nM

**Q.** Which IC50 does the source give for `COc1cc(C(=O)N2CCN(c3cnc(N)cc3OC)C[C@H]2CO)ncc1-c1ccc(C(F)(F)F)cc1` [Compound 101, [(S)-4-(6-Amino-4-methoxy-pyridin-3-yl)-2-hydroxymethyl-piperazin-1-yl]-[4-methoxy-5-(4-trifluoromethyl-phenyl)-pyridin-2-yl]-methanone] here?
**A.** 390 nM

**Q.** With `COc1cc(C(=O)N2CCN(c3cnc(N)cc3OC)C[C@H]2CO)ncc1-c1ccc(F)cc1` [Compound 102, [(S)-4-(6-Amino-4-methoxy-pyridin-3-yl)-2-hydroxymethyl-piperazin-1-yl]-[5-(4-fluoro-phenyl)-4-methoxy-pyridin-2-yl]-methanone] as the compound, how does the IC50 read?
**A.** 840 nM

**Q.** With `COc1cc(C(=O)N2CCN(c3cnc(N)cc3OC)CC2)ncc1-c1ccc(C(F)(F)F)cc1` [Compound 103, [4-(6-Amino-4-methoxy-pyridin-3-yl)-piperazin-1-yl]-[4-methoxy-5-(4-trifluoromethyl-phenyl)-pyridin-2-yl]-methanone] as the compound, how does the IC50 read?
**A.** 27 nM

**Q.** For `COc1cc(C(=O)N2CCN(c3cnc(N)cc3OC)CC2)ncc1-c1ccc(F)cc1` [Compound 104, [4-(6-Amino-4-methoxy-pyridin-3-yl)-piperazin-1-yl]-[5-(4-fluoro-phenyl)-4-methoxy-pyridin-2-yl]-methanone], which IC50 is on record?
**A.** 27 nM

**Q.** For `COc1cc(C(=O)N2CCN(c3cnc(N)cc3OC)CC2)ncc1-c1ccccc1` [Compound 105, 4-Methoxy-5-[4-(4-methoxy-5-phenylpyridine-2-carbonyl)piperazin-1-yl]pyridin-2-amine], which IC50 is on record?
**A.** 32 nM

**Q.** Which IC50 does the source give for `COc1cc(C(=O)N2CCN(c3cnc(N)cc3OC)C[C@@H]2[C@@H](C)O)ncc1-c1ccc(C(F)(F)F)cc1` [Compound 106, [(R)-4-(6-Amino-4-methoxy-pyridin-3-yl)-2-((R)-1-hydroxy-ethyl)piperazin-1-yl]-[4-methoxy-5-(4-trifluoromethyl-phenyl)-pyridin-2-yl]-methanone] here?
**A.** 440 nM

**Q.** How did the IC50 turn out when `COc1cc(C(=O)N2CCN(c3cnc(N)cc3OC)C[C@@H]2[C@H](C)O)ncc1-c1ccc(C(F)(F)F)cc1` [Compound 107] was run?
**A.** 210 nM

**Q.** With `COc1cc(C(=O)N2CCN(c3cnc(N)cc3OC)CC2CC(F)F)ncc1-c1ccc(C(F)(F)F)cc1` (stereo not drawn) [Compound 108, [4-(6-Amino-4-methoxy-pyridin-3-yl)-2-(2,2-difluoro-ethyl)-piperazin-1-yl]-[4-methoxy-5-(4-trifluoromethyl-phenyl)-pyridin-2-yl]-methanone] as the compound, how does the IC50 read?
**A.** 700 nM

**Q.** Which IC50 does the source give for `COc1cc(C(=O)N2CCC(c3ccc(N)nn3)CC2)ncc1-c1ccc(OCC2CC2(F)F)nc1` (stereo not drawn) [Compound 111, [4-(6-Amino-pyridazin-3-yl)-piperidin-1-yl]-[6′-(2,2-difluoro-cyclopropylmethoxy)-4-methoxy-[3,3′]bipyridinyl-6-yl]-methanone] here?
**A.** 440 nM

**Q.** `COc1cc(C(=O)N2CCC(c3ccc(N)nn3)CC2)ncc1-c1ccc(OC2CC2)nc1` [Compound 112, [4-(6-Amino-pyridazin-3-yl)-piperidin-1-yl]-(6′-cyclopropoxy-4-methoxy-[3,3′]bipyridinyl-6-yl)-methanone] was tested. Which IC50 did it give?
**A.** 1400 nM

**Q.** For `C[C@@H]1CN(C(=O)c2ccc(-c3ccc(C(F)(F)F)cc3)cc2)CCN1c1ccc(N)nc1` [Compound 113, [(R)-4-(6-Amino-pyridin-3-yl)-3-methyl-piperazin-1-yl]-(4′-trifluoromethyl-biphenyl-4-yl)-methanone], which IC50 is on record?
**A.** 2800 nM

**Q.** How did the IC50 turn out when `COc1cc(C(=O)N2CCN(c3ccc(N)nc3)[C@H](C)C2)ccc1-c1ccc(C(F)(F)F)cc1` [Compound 114, [(R)-4-(6-Amino-pyridin-3-yl)-3-methyl-piperazin-1-yl]-(2-methoxy-4′-trifluoromethyl-biphenyl-4-yl)-methanone] was run?
**A.** 67 nM

**Q.** For `COc1cc(C(=O)N2C[C@@H]3C[C@H]2CN3c2ccc(N)nn2)ccc1-c1ccc(C(F)(F)F)cc1` [Compound 115, [(1S,4S)-5-(6-Amino-pyridazin-3-yl)-2,5-diaza-bicyclo[2.2.1]hept-2-yl]-(2-methoxy-4′-trifluoromethyl-biphenyl-4-yl)-methanone], which IC50 is on record?
**A.** 250 nM

**Q.** `COc1cc(C(=O)N2C[C@@H]3C[C@H]2CN3c2ccc(N)nn2)ncc1-c1ccc(C(F)(F)F)cc1` [Compound 116, [(1S,4S)-5-(6-Amino-pyridazin-3-yl)-2,5-diaza-bicyclo[2.2.1]hept-2-yl]-[4-methoxy-5-(4-trifluoromethyl-phenyl)-pyridin-2-yl]-methanone] was tested. Which IC50 did it give?
**A.** 190 nM
